Experimental data as given in US8440637B2, “Combination treatment for the treatment of hepatitis C virus infection” (priority 2007, dated 2013).
Strand notation (5' to 3'): a small letter for the sugar, then the base; units joined by * are phosphorothioate-linked, units joined directly phosphodiester-linked; [ ] holds rarer units or linkages, { } end groups; capitals alone tell only the bases. l = locked nucleic acid (LNA); [5mC] = 5-methylcytosine; d = 2'-deoxy (DNA)

What was measured:
[1] = test system: HCV replicon (NNeo/C-5B); test: HCV replication in Huh-7 cells transfected with HCV replicon, Northern blot; type: cell-based, Hepatitis C virus; conditions: Huh-7 with HCV replicon; 48 hours; compared to mock and mismatch control
Experimental: We assess the efficacy of SEQ ID NO: 63 reducing HCV replication in the Huh-7 based cell model. Preliminary data on SEQ ID NO: 63 along with its truncated version SEQ ID NO: 66 (13-mer LNA-antimiR) and 4 nt mismatch control from inhibiting HCV replication in the Huh-7 cell line transfected with a HCV replicon (NNeo/C-5B). The different LNA-antimiR molecules along with a 2′ OMe antisense and scramble oligonucleotide were transfected into Huh-7 cells, HCV was allowed to replicate for 48 hours. Total RNA samples extracted from the Huh-7 cells were subjected to Northern blot analysis.

[2] = test system: miR-122a; test: Plasma cholesterol in LNA anti-miR122 treated mice; type: in vivo, mouse; conditions: Day 6; i.p. on day 0, 2 and 4
Experimental: In vivo study: Ten groups of animals (female C57/BL6; 3 mice per group) were treated in the following manner. Group 1 animals were injected with 0.2 ml saline by i.p. on day 0, day 2 and day 4. Groups 2-10 were dosed by i.p. with three different conc. (25 mg/kg, 5 mg/kg and 1 mg/kg) of either LNA antimiR-122a/SEQ ID NO: 61 (group 2-4), LNA antimir-122a/SEQ ID NO: 66 (group 5-7) or LNA antimir-122a/SEQ ID NO: 63 (group 8-10); the LNA antimir-122a sequences are given in the Table 1. All three LNA antimiR-122a oligonucleotides target the liver-specific miR-122a. The doses were calculated from the Day 0 body weights of each animal.
The animals were sacrificed 48 hours after last dose (Day 6), retro-orbital blood was collected in tubes containing EDTA and the plasma fraction harvested and stored frozen −80° C. for cholesterol analysis. At sacrifice livers were dissected and one portion was cut into 5 mm cubes and immersed in 5 volumes of ice-cold RNAlater. […]
Total cholesterol level was measured in plasma using a colometric assay Cholesterol CP from ABX Pentra. Cholesterol was measured following enzymatic hydrolysis and oxidation (2,3). […] 250 μl reagent was added and within 5 min the cholesterol content measured at a wavelength of 540 nm. […] The cholesterol level was determined by subtraction of the background and presented relative to the cholesterol levels in plasma of saline treated mice.

[3] = type: in vitro ADME; conditions: 96 h
Experimental: LNA oligonucleotide stability was tested in plasma from human or rats (it could also be mouse, monkey or dog plasma). In 45 μl plasma, 5 μl LNA oligonucleotide is added (at a final concentration of 20 μM). The LNA oligonucleotides are incubated in plasma for times ranging from 0 to 96 hours at 37° C.
At the indicated time the sample were snap frozen in liquid nitrogen. 2 μL (equals […]) LNA oligonucleotide in plasma was diluted by adding 15 μL of water and 3 μL 6× loading dye (Invitrogen). As marker a 10 bp ladder (Invitrogen, USA 10821-015) is used. To 1 μl ladder, 1 μl 6× loading and 4 μl water is added. The samples are mixed, heated to 65° C. for 10 min and loaded to a pre-run gel (16% acrylamide, 7 M UREA, 1×TBE, pre-run at 50 Watt for 1 h) and run at 50-60 Watt for […]. Subsequently, the gel is stained with 1× SyBR gold (molecular probes) in 1×TBE for 15 min. The bands were visualised using a phosphoimager from BioRad.
Stability of SEQ ID NO: 61 and SEQ ID NO: 61/miR-122a duplex were tested in mouse plasma at 37° C. over 96 hours. Shown in FIG. 12 is a SYBR-Gold stained PAGE.

[4] = test system: miR-122; type: in vivo, mouse
Excerpt: Liver cryo-sections from treated animals were subjected to in situ hybridizations for detection and localization of miR-122 and SEQ ID NO: 61 (FIG. 14). A probe complementary to miR-122 could detect miR-122a. A second probe was complementary to SEQ ID NO: 61. Shown in FIG. 14 is an overlay, in green is distribution and apparent amounts of miR-122a and SEQ ID NO: 61 and blue is DAPI nuclear stain, at 10× magnification. 100× magnifications reveal the intracellular distribution of miR-122a and SEQ ID NO: 61 inside the mouse liver cells.

[5] = test system: miR-122; test: Genome-wide liver expression profiling, Affymetrix Mouse Genome 430 2.0 arrays; type: in vivo
Experimental: We carried out genome-wide expression profiling of total RNA samples from saline LNA-antimiR-122 treated and LNA mismatch control treated mice livers 24 hours after the last dose using Affymetrix Mouse Genome 430 2.0 arrays. […] We subsequently examined the 3′ untranslated regions (UTRs) of the differentially expressed mRNAs for the presence of the 6 nt sequence CACTCC, corresponding to the reverse complement of the nucleotide 2-7 seed region in mature miR-122.
Expression profiles of livers of saline and LNA-antimiR treated mice were compared. NMRI female mice were treated with 25 mg/kg/day of LNA-antimiR along with saline control for three consecutive days and sacrificed 24 h, 1, 2 or 3 weeks after last dose. Additionally, expression profiles of livers of mice treated with the mismatch LNA control oligonucleotide 24 h after last dose were obtained. Three mice from each group were analyzed, yielding a total of […] expression profiles. RNA quality and concentration was measured using an Agilent 2100 Bioanalyzer and Nanodrop ND-1000, respectively. Total RNA was processed following the GeneChip Expression 3′-Amplification Reagents One-cycle cDNA synthesis kit instructions (Affymetrix Inc, Santa Clara, Calif., USA) to produce double-stranded cDNA. This was used as a template to generate biotin-labeled cRNA following manufacturer's specifications. Fifteen micrograms of biotin-labeled cRNA was fragmented to strands between 35 and 200 bases in length, of which 10 micrograms were hybridised onto Affymetrix Mouse Genome 430 2.0 arrays overnight in the GeneChip Hybridisation oven 6400 using standard procedures. The arrays were washed and stained in a GeneChip Fluidics Station 450. Scanning was carried out using the GeneChip Scanner 3000 and image analysis was performed using GeneChip Operating Software. Normalization and statistical analysis were done using the LIMMA software package for the R programming environment27. Probes reported as absent by GCOS software in all hybridizations were removed from the dataset. Additionally, an intensity filter was applied to the dataset to remove probes displaying background-corrected intensities below 16. Data were normalized using quantile normalization28. Differential expression was assessed using a linear model method. P values were adjusted for multiple testing using the Benjamini and Hochberg. Tests were considered to be significant if the adjusted p values were p<0.05. Clustering and visualization of Affymetrix array data were done using the MultiExperiment Viewer software29.

[6] = liver, 24 hours after the last dose

Substance	HCV RNA / inhibition of HCV replication (in words) [1]	plasma cholesterol compared to saline control (in words) [2]	stability in mouse plasma (in words) [3]	miR-122 staining pattern in liver sections (in words) ([4]; liver cryo-sections from treated mice versus saline)	intracellular distribution of the oligonucleotide in hepatocytes (in words) ([4]; mouse, in vivo)	differentially expressed mRNAs ([5]; 24 hours after the last LNA dose)	differentially expressed genes ([5]; after one week)	transcripts downregulated [5, 6]	transcripts upregulated compared to saline and LNA mismatch controls [5, 6]	differentially expressed genes ([5]; three weeks post treatment)
5′-AttGTcaCaCtCC-3′ (antisense lA*dT*dT*lG*lT*dC*dA*l[5mC]*dA*l[5mC]*dT*l[5mC]*l[5mC]) [SEQ ID NO: 66]	comparable efficacy with SEQ ID NO: 63	markedly lowered level of plasma cholesterol	–	–	–	–	–	–	–	–
5′-ccAttGtcAcaCtcCa-3′ (antisense CCATTGTCACACTCCA; sugars from the 5' end ddlddlddlddlddld, backbone and methylation of C not given here) [SEQ ID NO: 61]	–	–	completely stable over 96 hours	significantly reduced patchy staining pattern	evenly distributed in the entire cytoplasm	509	251	54	455	18
5′-CcAttGTcaCaCtCC-3′ (antisense CCATTGTCACACTCC; sugars from the 5' end ldlddllddldldll, backbone and methylation of C not given here) [SEQ ID NO: 63]	significant reduction of HCV RNA	markedly lowered level of plasma cholesterol	–	–	–	–	–	–	–	–
